Measurements from patent US20220249523A1, “BENZOAZEPINE COMPOUND-CONTAINING FREEZE-DRIED COMPOSITION” (OTSUKA PHARMACEUTICAL CO., LTD., priority 2019, published 2022).

How the values were obtained:
Type in all cases: physicochemical
[1] = Solubility in water of compound (1) and its metal salts
Method: (§1) The stability of these metal salts in a solid state was analyzed. […] Additionally, the solubility in water was analyzed.

[2] = Stability of metal salts of compound (1) in a solid state; conditions: compared to compound (1)
Method: as §1

[3] = Storage stability of freeze-dried compositions: amount of tolvaptan produced (HPLC area normalization); conditions: for Amount of tolvaptan produced: freeze-dried composition, compound (1) 0.1 w/v %; for Amount of tolvaptan produced / Amount of tolvaptan produced (%): 60° C. for 1 month; for Amount of tolvaptan produced (%): freeze-dried
Method: Aqueous solutions containing compound (1) (0.1 w/v %), mannitol (4 w/v %), and sodium hydroxide (q.s.) were prepared (pH 7, 7.5, 8, 8.5, or 9) using a 20 mM disodium hydrogen phosphate buffer.
The aqueous solutions were each placed in a 2-mL glass vial, and frozen to a temperature of −40° C. or lower. Thereafter, the vials were depressurized to vacuum, and water was removed during freeze-drying to thus obtain freeze-dried compositions. The resulting products were stored at 40° C. for 3 months, or at 60° C. for 1 month; and then reconstituted with the same amount of water as that removed by freeze-drying, to return the products back to aqueous solutions. The amount of total degradation products or tolvaptan produced (%) in each of the obtained aqueous solutions was determined by the HPLC area normalization method.
Freeze-dried compositions were prepared in the same manner as in the “Analysis 1: Stability of Freeze-Dried Formulation of Compound (1)” section above using additives other than mannitol, i.e., NaCl, sorbitol, sucrose, maltose, trehalose, or lactose. Here, the pH of the aqueous solutions before preparing freeze-dried compositions was adjusted to 8.5. However, for lactose, the pH of the aqueous solution before preparing a freeze-dried composition was adjusted to 9.0 with a 24 mM sodium hydrogen carbonate buffer.
After the obtained freeze-dried compositions were stored at 60° C. for 1 month, the amount of tolvaptan produced was determined by the HPLC area normalization method, and the stability of compound (1) in each composition was analyzed. […] The reduction was particularly remarkable with sucrose, maltose, and lactose. Additionally, after storage at 60° C. for 1 week of the aqueous solutions before preparing freeze-dried compositions, the stability of compound (1) in each composition was analyzed. […] The results confirmed that the use of maltose or lactose increased the amount of tolvaptan produced (%).
Aqueous solutions with a pH of 7.5, 8, 8.5, or 9 were prepared in the same manner as in the “Analysis 2: Stability of Freeze-Dried Formulation of Compound (1)” section above, except that compound A at a concentration of 0.541 w/v % and sucrose at a concentration of 7.5 w/v % were used. The resulting aqueous solutions were freeze-dried to obtain freeze-dried compositions. The freeze-dried compositions were stored at 60° C. for 1 month. Thereafter, the amount of tolvaptan produced (%) was determined by the HPLC area normalization method.
An aqueous solution with a pH of 8.5 was prepared in the same manner as in the “Analysis 1: Stability of Freeze-Dried Formulation of Compound A” section above, using potassium phosphate instead of sodium phosphate as a buffering agent. Further, a freeze-dried composition was prepared to analyze the stability of compound A in the freeze-dried composition (after storage at 60° C. for 1 month). The amount of tolvaptan produced (%) was 0.07%, which was the same as when sodium phosphate was used.
Aqueous solutions with a pH of 8.0 were prepared in the same manner as in the “Analysis 1: Stability of Freeze-Dried Formulation of Compound A” section above, such that the sucrose concentration was 1%, 2%, 4%, or 7.5%. Further, the freeze-dried compositions were prepared to analyze the stability of compound A in the freeze-dried compositions (after storage at 60° C. for 1 month). The amount of tolvaptan produced (%) was 0.25% when the sucrose concentration was 1%, 0.12% when the sucrose concentration was 2%, 0.08% when the sucrose concentration was 4%, and 0.10% when the sucrose concentration was 7.5%.
In addition to the aqueous solution containing sodium phosphate at a concentration of 20 mM and having a pH of 8.5, aqueous solutions containing sodium phosphate at a concentration of 10 mM or 50 mM were also prepared as in the same manner as the “Analysis 1: Stability of Freeze-Dried Formulation of Compound A” section above. […]

[4] = Stability of phosphate ester bond in aqueous solution on high-pressure steam sterilization (HPLC area normalization); conditions: 0.1 w/v % aqueous solution, 121° C., 20 minutes
Method: Aqueous solutions containing compound (1) at a concentration of 0.1 w/v % were prepared, and the stability of the aqueous solutions when subjected to high-pressure steam sterilization (121° C., 20 minutes) was analyzed. The aqueous solutions were prepared using a 100 mM sodium phosphate buffer or a 100 mM Tris buffer. The pH of the aqueous solutions prepared using each of the buffers was adjusted with sodium hydroxide to prepare solutions with different pHs. After the treatment, the purity of compound (1) and the amount of tolvaptan produced were determined by the HPLC area normalization method.

[5] = pH at reconstitution with water of stored freeze-dried compositions; conditions: initial pH 8.5
Method: In addition to the aqueous solution containing sodium phosphate at a concentration of 20 mM and having a pH of 8.5, aqueous solutions containing sodium phosphate at a concentration of 10 mM or 50 mM were also prepared as in the same manner as the “Analysis 1: Stability of Freeze-Dried Formulation of Compound A” section above. Further, freeze-dried compositions were prepared to analyze the stability of compound A in the freeze-dried compositions (after storage at 60° C. for 1 month, or at 40° C. for 3 months). Thereafter, the pH at the time of reconstitution with water was analyzed.

[6] = Appearance on reconstitution of freeze-dried compositions with water (foaming, cloudiness); conditions: freeze-dried compositions with a sucrose concentration of 4% or 7.5%, pH 8.0

## [O-][n+]1ccccc1[S-].[O-][n+]1ccccc1[S-].[Zn+2] [Zinc salt]
[1]
  Solubility in water: 0.003 w/v %
[2]
  Stability in a solid state: remarkably improved stability

## Cc1ccccc1C(=O)Nc1ccc(C(=O)N2CCCC(OP(=O)(O)O)c3cc(Cl)ccc32)c(C)c1 (stereo not drawn) [compound (1)]
[3]; mannitol 4 w/v %, solution pH 8.5
  Amount of tolvaptan produced: 1.45%
[3]; mannitol 4 w/v %, solution pH 9
  Amount of tolvaptan produced: 0.9%
[3]; mannitol 4 w/v %, solutions with a pH exceeding 8, storage at 60° C.
  Stability in freeze-dried compositions: relatively stable
[4]; sodium phosphate buffer having a pH of 7.5 or more
  Stability of phosphate ester bond on high-pressure steam sterilization: highly stable
[4]; tolvaptan formed as a precipitate
  Stability of phosphate ester bond on high-pressure steam sterilization: hydrolyzed
[1]
  Solubility in water: 0.14 w/v %

## Cc1ccccc1C(=O)Nc1ccc(C(=O)N2CCCC(OP(=O)([O-])[O-])c3cc(Cl)ccc32)c(C)c1.[Na+].[Na+] (stereo not drawn) [compound A]
[3]; compound A 0.541 w/v %, sucrose 7.5 w/v %, 20 mM sodium phosphate, pH 7.5
  Amount of tolvaptan produced (%): 0.22%
[3]; compound A 0.541 w/v %, sucrose 7.5 w/v %, 20 mM sodium phosphate, pH 8
  Amount of tolvaptan produced (%): 0.10%
[3]; compound A 0.541 w/v %, sucrose 7.5 w/v %, 20 mM sodium phosphate, pH 8.5
  Amount of tolvaptan produced (%): 0.07%
[3]; compound A 0.541 w/v %, sucrose 7.5 w/v %, 20 mM sodium phosphate, pH 9
  Amount of tolvaptan produced (%): below the detection limit
[3]; compound A, pH 8.0, sucrose concentration 1%
  Amount of tolvaptan produced (%): 0.25%
[3]; compound A, pH 8.0, sucrose concentration 2%
  Amount of tolvaptan produced (%): 0.12%
[3]; compound A, pH 8.0, sucrose concentration 4%
  Amount of tolvaptan produced (%): 0.08%
[3]; compound A, sucrose 7.5 w/v %, pH 8.5, sodium phosphate 10 mM
  Amount of tolvaptan produced (%): 0.07%
[3]; compound A, sucrose 7.5 w/v %, pH 8.5, sodium phosphate 50 mM
  Amount of tolvaptan produced (%): below the detection limit
[3]; compound A, sucrose 7.5 w/v %, potassium phosphate instead of sodium phosphate, pH 8.5
  Amount of tolvaptan produced (%): 0.07%
[5]; sodium phosphate 10 mM
  pH at 40° C. 3 months later: 8.16
  pH at 60° C. 1 month later: 8.24
[5]; sodium phosphate 20 mM
  pH at 40° C. 3 months later: 8.24
  pH at 60° C. 1 month later: 8.34
[5]; sodium phosphate 50 mM
  pH at 40° C. 3 months later: 8.30
  pH at 60° C. 1 month later: 8.36
[1]
  Solubility in water: ≥ 4 w/v %
[2]
  Stability in a solid state: remarkably improved stability
[6]
  Appearance when reconstituted with water: foaming and slight cloudiness were observed
